Key:
Type in all cases: cell-based, mouse
ITK-SYK^+PD-1− cells = assay: Lactate production of ITK-SYK+PD-1− cells incubated with small molecule inhibitors; conditions: ITK-SYK+PD-1− cells in vitro; FIGS. 10A-C
Description: (§1) Cell culture. Unless otherwise indicated, murine cells were cultured in DMEM containing 20% FCS. The following compounds were used for the in vitro experiments: glycolysis inhibitor 2-deoxy-D-glucose (D8375, Sigma), mTOR inhibitor Torin-1 (S2827, Selleckchem), HIF1α inhibitor PX-478 2HCl (S7612, Selleckchem), ATP citrate lyase inhibitor BMS-303141 (4609, Tocris), fatty acid synthase inhibitor FT113 (S6666, Selleckchem), and BET-p300/CBP dual inhibitor NE02734 (S9648, Selleckchem). Inhibitors were dissolved in DMSO or water, and the cell culture medium was supplemented with the indicated concentrations of the compound or DMSO/water (as control).
To test the dependency of fully transformed lymphomas with Pdcd1 deletion on the released mTOR-HIF1α-glycolysis cascade, Applicants incubated ITK-SYK^+PD-1− cells with small molecule inhibitors of mTOR, HIF1α, or glycolysis^22,23.

[1] = tested on: ITK-SYK^+PD-1^− lymphoma cells; assay: In vitro survival of PD-1 deficient lymphoma cells under inhibitor treatment; conditions: FIGS. 10D-F
Description: as §1
To determine whether ACLY activity is required for PD-1-deficient lymphoma cell survival, Applicants next incubated transformed ITK-SYK^+PD-1− T cells from tamoxifen-injected ITK-SYK^CD4-creERT2; Pdcd1^−/− mice with an ACLY inhibitor. This treatment killed the ITK-SYK^+PD-1^− lymphoma cells (FIG. 11F, p=0.0037).

[2] = tested on: AP-1 family transcription factors; assay: ATAC-seq transcription factor footprint analysis after inhibitor incubation; conditions: BMS-303141 5 μM, 3 hours in vitro vs DMSO
Description: Preparation of mouse and human ATAC-seq libraries. Ex vivo: For mouse ATAC-seq, ITK-SYK^CD4-creERT2, or ITK-SYK^CD4-creERT2; Pdcd1^−/− mice received a single dose of 2 mg tamoxifen. Five days after injection, single-cell suspensions were generated from the spleens and 50,000 eGFP^+ FACS-sorted cells were used for the transposase reaction. For human ATAC-seq, 50,000 malignant cells from CTCL patients with and without PDCD1 mutation were sorted by FACS as described above. The transposase reaction was performed as previously described^81. […] The reaction was monitored after 4 cycles with qPCR using 5 μl PCR reaction mixture and the same primers in 15 μl total volume (KK4617, Roche). Cycles were added as calculated, then the amplified samples were purified, and size selected using SpeedBeads (GE65152105050250, Sigma) in 22% PEG. […]
ATAC-seq analysis. […] Next, reads were aligned to the mm9 genome using Bowtie2 (v2.4.0)^71. […] To filter properly mapped reads, Applicants used Samtools with the following options: exclude multi-mapped reads (MAPQ<30) and reads with flag 1796 or 1804. Next, Samtools with option “-f 2” was used to filter properly paired reads. […] Next, Applicants filtered for nucleosome-free reads (0-100 bp) as previously described^44. […]

SMILES	production of lactate (ITK-SYK^+PD-1− cells)	toxicity to PD-1 deficient lymphoma cells [1]	AP-1 footprints in Pdcd1 deleted cells in comparison to cells with intact PD-1 pathway [2]
O=CC[C@@H](O)[C@H](O)[C@H](O)CO [2-DG, 2-deoxy-D-glucose]	reduced the production of lactate	toxic	
COc1ccc(-c2ccccc2)cc1NS(=O)(=O)c1cc(Cl)cc(Cl)c1O [BMS-303141]			de-enriched

Source: patent US20240316012A1, “METHODS FOR TREATING LYMPHOMA” (Northwestern University, priority 2023, published 2024)
